{"source": "the supplement of paper PMC10307832", "assay_in_all_cases": "relative viability (nuclei count vs DMSO), 5 days (fraction); higher = more cells survive", "key": {"[1]": {"system": "NCI-H1734", "summary_of_the_method": "(§1)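 Lung cancer cell lines, seeded in 1536-well plates, were treated the following day by pin tool with a single drug or with five library-drug doses (not always all listed) in √10 steps on top of a fixed anchor-drug dose. Cells were fixed and nuclei stained in one step after 5 days, and nuclei were counted. Relative viability is the nuclei count for treated wells divided by that for vehicle wells, reported as medians of duplicate plates.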"}, "[2]": {"system": "LU99A", "summary_of_the_method": "as §1"}, "[3]": {"system": "NCI-H460", "summary_of_the_method": "as §1"}, "[4]": {"system": "NCI-H2228", "summary_of_the_method": "as §1"}, "[5]": {"system": "PC-3 [JPC-3]", "summary_of_the_method": "as §1"}, "[6]": {"system": "LOU-NH91", "summary_of_the_method": "as §1"}, "[7]": {"system": "NCI-H3122", "summary_of_the_method": "as §1"}, "[8]": {"system": "CAL-12T", "summary_of_the_method": "as §1"}, "[9]": {"system": "RERF-LC-KJ", "summary_of_the_method": "as §1"}, "[10]": {"system": "NCI-H2405", "summary_of_the_method": "as §1"}, "[11]": {"system": "NCI-H1793", "summary_of_the_method": "as §1"}, "[12]": {"system": "LC-2-ad", "summary_of_the_method": "as §1"}, "[13]": {"system": "NCI-H1755", "summary_of_the_method": "as §1"}, "[14]": {"system": "NCI-H2087", "summary_of_the_method": "as §1"}, "[15]": {"system": "NCI-H1651", "summary_of_the_method": "as §1"}, "[16]": {"system": "HCC-78", "summary_of_the_method": "as §1"}, "[17]": {"system": "ChaGo-K-1", "summary_of_the_method": "as §1"}, "[18]": {"system": "ABC-1", "summary_of_the_method": "as §1"}, "[19]": {"system": "NCI-H1944", "summary_of_the_method": "as §1"}, "[20]": {"system": "NCI-H1395", "summary_of_the_method": "as §1"}, "[21]": {"system": "UMC-11", "summary_of_the_method": "as §1"}, "[22]": {"system": "NCI-H2170", "summary_of_the_method": "as §1"}, "[23]": {"system": "HCC-366", "summary_of_the_method": "as §1"}}}
{"smiles": "O=C(O)c1ccc(-c2c[nH]c3ncc(-c4ccccc4)cc23)cc1C1CCCC1", "note": "+ CC(=O)c1c(C)c2cnc(Nc3ccc(N4CCNCC4)cn3)nc2n(C2CCCC2)c1=O [Palbociclib] (partner 0.5 µM)", "values": [{"measurement": "relative viability", "setting": "[1]; first compound 0.04 µM", "value": 0.324}, {"measurement": "relative viability", "setting": "[1]; first compound 0.1265 µM", "value": 0.328}, {"measurement": "relative viability", "setting": "[1]; first compound 0.4 µM", "value": 0.302}, {"measurement": "relative viability", "setting": "[1]; first compound 1.265 µM", "value": 0.344}, {"measurement": "relative viability", "setting": "[2]; first compound 0.04 µM", "value": 0.43}, {"measurement": "relative viability", "setting": "[2]; first compound 0.1265 µM", "value": 0.439}, {"measurement": "relative viability", "setting": "[2]; first compound 0.4 µM", "value": 0.375}, {"measurement": "relative viability", "setting": "[2]; first compound 1.265 µM", "value": 0.344}, {"measurement": "relative viability", "setting": "[3]; first compound 0.04 µM", "value": 0.274}, {"measurement": "relative viability", "setting": "[3]; first compound 0.1265 µM", "value": 0.203}, {"measurement": "relative viability", "setting": "[3]; first compound 0.4 µM", "value": 0.23}, {"measurement": "relative viability", "setting": "[3]; first compound 1.265 µM", "value": 0.146}, {"measurement": "relative viability", "setting": "[4]; first compound 0.04 µM", "value": 0.885}, {"measurement": "relative viability", "setting": "[4]; first compound 0.1265 µM", "value": 0.736}, {"measurement": "relative viability", "setting": "[4]; first compound 0.4 µM", "value": 0.886}, {"measurement": "relative viability", "setting": "[4]; first compound 1.265 µM", "value": 0.5}, {"measurement": "relative viability", "setting": "[5]; first compound 0.04 µM", "value": 0.534}, {"measurement": "relative viability", "setting": "[5]; first compound 0.1265 µM", "value": 0.553}, {"measurement": "relative viability", "setting": "[5]; first compound 0.4 µM", "value": 0.538}, {"measurement": "relative viability", "setting": "[5]; first compound 1.265 µM", "value": 0.499}, {"measurement": "relative viability", "setting": "[6]; first compound 0.04 µM", "value": 0.593}, {"measurement": "relative viability", "setting": "[6]; first compound 0.1265 µM", "value": 0.517}, {"measurement": "relative viability", "setting": "[6]; first compound 0.4 µM", "value": 0.525}, {"measurement": "relative viability", "setting": "[6]; first compound 1.265 µM", "value": 0.469}, {"measurement": "relative viability", "setting": "[7]; first compound 0.04 µM", "value": 0.201}, {"measurement": "relative viability", "setting": "[7]; first compound 0.1265 µM", "value": 0.175}, {"measurement": "relative viability", "setting": "[7]; first compound 0.4 µM", "value": 0.174}, {"measurement": "relative viability", "setting": "[7]; first compound 1.265 µM", "value": 0.198}, {"measurement": "relative viability", "setting": "[8]; first compound 0.04 µM", "value": 0.496}, {"measurement": "relative viability", "setting": "[8]; first compound 0.1265 µM", "value": 0.442}, {"measurement": "relative viability", "setting": "[8]; first compound 0.4 µM", "value": 0.499}, {"measurement": "relative viability", "setting": "[8]; first compound 1.265 µM", "value": 0.384}, {"measurement": "relative viability", "setting": "[9]; first compound 0.04 µM", "value": 1.01}, {"measurement": "relative viability", "setting": "[9]; first compound 0.1265 µM", "value": 1.02}, {"measurement": "relative viability", "setting": "[9]; first compound 0.4 µM", "value": 0.97}, {"measurement": "relative viability", "setting": "[9]; first compound 1.265 µM", "value": 0.875}, {"measurement": "relative viability", "setting": "[10]; first compound 0.04 µM", "value": 0.529}, {"measurement": "relative viability", "setting": "[10]; first compound 0.1265 µM", "value": 0.557}, {"measurement": "relative viability", "setting": "[10]; first compound 0.4 µM", "value": 0.517}, {"measurement": "relative viability", "setting": "[10]; first compound 1.265 µM", "value": 0.473}, {"measurement": "relative viability", "setting": "[11]; first compound 0.04 µM", "value": 0.248}, {"measurement": "relative viability", "setting": "[11]; first compound 0.1265 µM", "value": 0.338}, {"measurement": "relative viability", "setting": "[11]; first compound 0.4 µM", "value": 0.302}, {"measurement": "relative viability", "setting": "[11]; first compound 1.265 µM", "value": 0.31}, {"measurement": "relative viability", "setting": "[12]; first compound 0.04 µM", "value": 0.425}, {"measurement": "relative viability", "setting": "[12]; first compound 0.1265 µM", "value": 0.541}, {"measurement": "relative viability", "setting": "[12]; first compound 0.4 µM", "value": 0.489}, {"measurement": "relative viability", "setting": "[12]; first compound 1.265 µM", "value": 0.42}, {"measurement": "relative viability", "setting": "[13]; first compound 0.04 µM", "value": 0.434}, {"measurement": "relative viability", "setting": "[13]; first compound 0.1265 µM", "value": 0.495}, {"measurement": "relative viability", "setting": "[13]; first compound 0.4 µM", "value": 0.417}, {"measurement": "relative viability", "setting": "[13]; first compound 1.265 µM", "value": 0.48}, {"measurement": "relative viability", "setting": "[14]; first compound 0.04 µM", "value": 0.214}, {"measurement": "relative viability", "setting": "[14]; first compound 0.1265 µM", "value": 0.267}, {"measurement": "relative viability", "setting": "[14]; first compound 0.4 µM", "value": 0.214}, {"measurement": "relative viability", "setting": "[14]; first compound 1.265 µM", "value": 0.248}, {"measurement": "relative viability", "setting": "[15]; first compound 0.04 µM", "value": 0.534}, {"measurement": "relative viability", "setting": "[15]; first compound 0.1265 µM", "value": 0.524}, {"measurement": "relative viability", "setting": "[15]; first compound 0.4 µM", "value": 0.514}, {"measurement": "relative viability", "setting": "[15]; first compound 1.265 µM", "value": 0.475}, {"measurement": "relative viability", "setting": "[16]; first compound 0.04 µM", "value": 0.494}, {"measurement": "relative viability", "setting": "[16]; first compound 0.1265 µM", "value": 0.467}, {"measurement": "relative viability", "setting": "[16]; first compound 0.4 µM", "value": 0.488}, {"measurement": "relative viability", "setting": "[16]; first compound 1.265 µM", "value": 0.435}, {"measurement": "relative viability", "setting": "[17]; first compound 0.04 µM", "value": 0.958}, {"measurement": "relative viability", "setting": "[17]; first compound 0.1265 µM", "value": 0.966}, {"measurement": "relative viability", "setting": "[17]; first compound 0.4 µM", "value": 0.945}, {"measurement": "relative viability", "setting": "[17]; first compound 1.265 µM", "value": 0.834}, {"measurement": "relative viability", "setting": "[18]; first compound 0.04 µM", "value": 0.674}, {"measurement": "relative viability", "setting": "[18]; first compound 0.1265 µM", "value": 0.892}, {"measurement": "relative viability", "setting": "[18]; first compound 0.4 µM", "value": 0.551}, {"measurement": "relative viability", "setting": "[18]; first compound 1.265 µM", "value": 0.742}, {"measurement": "relative viability", "setting": "[19]; first compound 0.04 µM", "value": 0.349}, {"measurement": "relative viability", "setting": "[19]; first compound 0.1265 µM", "value": 0.376}, {"measurement": "relative viability", "setting": "[19]; first compound 0.4 µM", "value": 0.315}, {"measurement": "relative viability", "setting": "[19]; first compound 1.265 µM", "value": 0.314}, {"measurement": "relative viability", "setting": "[20]; first compound 0.04 µM", "value": 0.567}, {"measurement": "relative viability", "setting": "[20]; first compound 0.1265 µM", "value": 0.66}, {"measurement": "relative viability", "setting": "[20]; first compound 0.4 µM", "value": 0.618}, {"measurement": "relative viability", "setting": "[20]; first compound 1.265 µM", "value": 0.567}, {"measurement": "relative viability", "setting": "[21]; first compound 0.04 µM", "value": 0.286}, {"measurement": "relative viability", "setting": "[21]; first compound 0.1265 µM", "value": 0.312}, {"measurement": "relative viability", "setting": "[21]; first compound 0.4 µM", "value": 0.333}, {"measurement": "relative viability", "setting": "[21]; first compound 1.265 µM", "value": 0.332}, {"measurement": "relative viability", "setting": "[22]; first compound 0.04 µM", "value": 0.387}, {"measurement": "relative viability", "setting": "[22]; first compound 0.1265 µM", "value": 0.438}, {"measurement": "relative viability", "setting": "[22]; first compound 0.4 µM", "value": 0.39}, {"measurement": "relative viability", "setting": "[22]; first compound 1.265 µM", "value": 0.389}, {"measurement": "relative viability", "setting": "[23]; first compound 0.04 µM", "value": 0.442}, {"measurement": "relative viability", "setting": "[23]; first compound 0.1265 µM", "value": 0.43}, {"measurement": "relative viability", "setting": "[23]; first compound 0.4 µM", "value": 0.416}, {"measurement": "relative viability", "setting": "[23]; first compound 1.265 µM", "value": 0.346}]}
